Experimental data from patent US20220024921A1, “1,3,4-OXADIAZOLONE COMPOUND AND PHARMACEUTICAL” (NIPPON SHINYAKU CO., LTD., priority 2018, published 2022).

Experiments:
[1] = target: T1, PIM1 serine/threonine kinase (Homo sapiens, UniProt P11309); assay: PIM1 serine/threonine kinase inhibitory effect; format: biochemical; conditions: PIM1 serine/threonine kinase activity; ATP 40 μM; 30° C., 30 minutes
T1 construct: purchased Carna Bioscience, Inc
Summary of the method: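 Recombinant PIM1 (0.15 μg/ml final) with 0.5 μM biotinylated substrate and 40 μM ATP in pH 7.0 HEPES/MgCl2 buffer, 30 min at 30° C. Compound range was 0.01–10000 nM final, n=2. HTRF detection with streptavidin-XL665 and anti-phospho antibody-cryptate, 1 h; IC50 from non-linear regression of the 665/620 ratio.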

[2] = target: PIM3 transgenic cells (Ba/F3) (Homo sapiens, UniProt Q86V86); assay: Proliferation inhibitory effect on PIM3 transgenic cells; format: cell-based, mouse; conditions: proliferation inhibition, 72 hours, Cell Counting Kit-8, read-out: PIM3 IC50
Excerpt: Human PIM1, 2, and 3 genes were inserted into the multi-cloning sites of retrovirus expression vectors pMYs-IRES-GFP, respectively, to prepare gene transfer vectors. Then, each gene transfer vector was introduced into packaging cells PLAT-E derived from a human fetal kidney cell line in the logarithmic growth phase, using a transfection reagent (FuGENE6, Promega Corporation). Since the culture supernatant of PLAT-E after gene transfer contained virus particles for gene transfer, the culture supernatant was collected and used as a medium for gene transfer. The medium for gene transfer was added to a plate coated with RetroNectin, and the plate was incubated to attach the virus particles to the plate. Then, a mouse pro-B cell line Ba/F3 in the logarithmic growth phase was seeded on the plate and infected with the virus to prepare PIM1, 2, or 3 transgenic cells that proliferate in a PIM 1, 2, or 3-dependent manner. The expression of PIM1, 2, or 3 protein in each cell was confirmed by Western blotting.
Each test substance was prepared to 10 mM with dimethylsulfoxide (DMSO), and diluted with DMSO so as to have concentrations of 3000, 1000, 300, 100, 30, 10, 3, and 1 μM. Moreover, each dilution was further diluted 10-fold with distilled water to prepare a test substance solution.
PIM1, 2, 3-expressing cells were seeded on a 96-well plate, and each test substance solution prepared the next day was added such that final concentrations were 10000, 3000, 1000, 300, 100, 30, 10, 3, and 1 nM. 72 hours after the addition, 10 μL of Cell Counting Kit-8 (DOJINDO LABORATORIES) was added to each well. After incubation for 1 to 4 hours, absorbance OD450 at 450 nm was measured. In addition, absorption OD650 at 650 nm as a reference wavelength was measured.
OD450-OD650 for each condition was calculated, and then the inhibition rates when OD450-OD650 of negative control (DMSO only) and OD450-OD650 of Blank (without cells) were set to 0% and 100%, respectively, were calculated. Then, non-linear regression analysis was performed for logarithmic dose and inhibition rate using a two-parameter logistic model to estimate IC50 values.
For the compounds with the following Example numbers, in addition to the above proliferation inhibitory effect on PIM1 transgenic cells, the proliferation inhibitory effect on PIM2 transgenic cells and the proliferation inhibitory effect on PIM3 transgenic cells were calculated as IC50.

[3] = tested on: graft-versus-host disease model CB6F1 mice; assay: Lymphocyte proliferation inhibitory effect using graft-versus-host disease model animals (splenomegaly formation); format: in vivo; conditions: Mus musculus, 240 h, oral, twice a day for 10 days, GVHD model CB6F1 mice, read-out: Inhibition rate (%) (splenomegaly formation); for inhibition in vivo at 20 mg/kg: single dose 20 mg/kg

T1 sequence (P11309 whole entry): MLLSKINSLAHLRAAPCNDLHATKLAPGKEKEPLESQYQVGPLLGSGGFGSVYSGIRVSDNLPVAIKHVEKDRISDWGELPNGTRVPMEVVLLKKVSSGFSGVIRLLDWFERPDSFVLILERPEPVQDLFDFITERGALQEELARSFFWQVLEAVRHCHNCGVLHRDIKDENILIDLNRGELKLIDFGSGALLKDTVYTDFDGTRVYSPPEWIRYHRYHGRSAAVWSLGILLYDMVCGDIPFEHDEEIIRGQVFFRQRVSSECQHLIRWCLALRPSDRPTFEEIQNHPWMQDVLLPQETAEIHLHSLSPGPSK

Structure (SMILES)	IC50 [1] [nM]	GI50 [2] [nM]	inhibition in vivo at 6 mg/kg ([3]; single dose 6 mg/kg) [%]	inhibition in vivo at 20 mg/kg [3] [%]	inhibition in vivo at 10 mg/kg ([3]; single dose 10 mg/kg) [%]
C[C@H](Nc1cc(-c2n[nH]c(=O)o2)cc(F)c1C(F)(F)F)C1CCNCC1.Cl [Example 75, 5-[3-fluoro-5-{[(1S)-1-(piperidin-4-yl)ethyl]amino}-4-(trifluoromethyl)phenyl]-1,3,4-oxadiazol-2(3H)-one hydrochloride]	1.4	120	21.7	27.1	
C[C@H](Nc1cc(-c2n[nH]c(=O)o2)cc(F)c1OC(F)(F)F)C1CCNCC1.Cl [Example 202, 5-[3-fluoro-5-{[(1S)-1-(piperidin-4-yl)ethyl]amino}-4-(trifluoromethoxy)phenyl]-1,3,4-oxadiazol-2(3H)-one hydrochloride]	1.5	78		33.5	28.4
